Experimental data: patent publication US20040204423A1, “Crystalline antifungal polymorph” (priority 1997, published 2004)

Assay: Solid-state stability of polymorph Form I: conversion into other forms under normal storage and stress conditions
Assay type: physicochemical
From the text: The three crystalline polymorphic forms of the compound of formula designated as Form 1, II and III can readily be distinguished from one another by examination of the characteristic x-ray Diffraction patterns (see FIGS. 1-3), the characteristic infrared spectra (see FIGS. 4-6) and the characteristic Differential Scanning Calorimetry ([…]) thermograms (FIGS. 7-9).

Measured: conversion into any other form

CCC([C@H](C)O)n1ncn(-c2ccc(N3CCN(c4ccc(OC[C@@H]5CO[C@@](Cn6cncn6)(c6ccc(F)cc6F)C5)cc4)CC3)cc2)c1=O (single isomer, unassigned; (-)) [Form 1]
did not convert into any other form: normal storage conditions (15′-30° C. and protected from light) | stress condition: 75% relative humidity at 40° C. for 6 weeks | stress condition: 75° C. for 6 weeks | stress condition: 97% relative humidity at ambient temperature for 2 minutes | stress condition: 150° C. for 2 hours
